pEC50: −log10 of the molar value. Converted amounts (≈) assume the structure as drawn.
Assays:
[1] = target: T1, SARS-Cov2 RdRp (nsp12-nsp7-nsp8) (Severe acute respiratory syndrome coronavirus 2, UniProt P0DTD1); format: biochemical; conditions: primer extension; analog at 100 uM, printed 100 mM
[2] = target: T1, SARS-Cov2 RdRp (nsp12-nsp7-nsp8); format: biochemical; conditions: after addition of GTP and CTP (third and fourth nucleotides)
[3] = system: Human cytomegalovirus (HCMV), strain AD169; conditions: for pEC50 / EC90: drug concentration 0.048-150 μM
[4] = system: JC virus (JCV)
[5] = system: BK virus (BKV), Gardner strain; set-up: SI50 / SI90: unit not given beside the values
[6] = system: Epstein-Barr virus (EBV), Akata strain; set-up: SI50 / SI90: unit not given beside the values
[7] = in vitro; conditions: male, SD, rat, plasma
[8] = system: enterovirus-68 (EV-68)
[9] = system: HCMV AD169; experiment: HCMV plaque reduction assay, MRC-5 cells, strain AD169; format: cell-based, Human cytomegalovirus; conditions: hCMV AD169, MRC5 cells, plaque assay, 6-days duration
[10] = system: Influenza B/Florida/4/2006 (Yamagata); conditions: for SI50 (SI): Influenza B, SI = CC50/EC50
[11] = system: SARS-CoV-2 (USA-WA1/2020); conditions: for SI50 (SI): SARS-CoV-2, SI = CC50/EC50
[12] = system: MERS-CoV (EMC); format: cell-based; conditions: SI = CC50/EC50
[13] = system: respiratory syncytial virus (RSV, A2); conditions: for SI50 (SI): RSV, SI = CC50/EC50
[14] = system: Tacaribe virus (TCRV, TRVL-11573); set-up: SI50 (SI): unit not given beside the values
[15] = system: influenza/California/07/2009 (H1N1)pdm09; conditions: for SI50 (SI): Influenza(H1N1), SI = CC50/EC50
[16] = system: enterovirus-68 (EV-68, US/DY/14-18953); conditions: for SI50 (SI): EV-68, SI = CC50/EC50
[17] = system: dengue virus-2 (DENV-2, New Guinea C); conditions: SI = CC50/EC50
[18] = system: adenovirus-5 (Ad5)
[19] = system: RSV
[20] = system: Influenza B
[21] = system: influenza A(H1N1)
[22] = system: influenza A(H5N1)
[23] = system: Rift Valley fever virus (RVFV)
[24] = system: TCRV
[25] = system: Zika virus
[26] = in vitro; conditions: both, human, plasma

With `Nc1nc2c(ncn2[C@@H]2OC(COP(=O)(O)OP(=O)(O)OP(=O)(O)O)=C[C@H]2O)c(=O)[nH]1` [ddhGTP, 3′-deoxy-3′,4′-didehydro-guanosine-triphosphate] the “incorporation into RNA by SARS-Cov2 RdRp (in words)” value (“incorporation into RNA” below) [1] was “incorporates onto RNA as GTP analog” and the “chain termination of RNA synthesis (in words)” value [2] was “caused chain termination of RNA synthesis”.

For `C[C@H](Cn1cnc2c(N)ncnc21)OCP(=O)(O)O` [TNV, reference compound], the CC50 [3] was > 150 µM, the pEC50 [3] was < 3.82 and the EC90 [3] was > 150 µM. The CC50 [4] was > 150 µM, the pEC50 [4] was < 3.82 and the EC90 [4] was > 150 µM. The CC50 [5] was > 150 µM, the EC90 [5] was > 150 µM and the SI90 [5] was 1. The CC50 [6] was > 150 µM, the pEC50 [6] was 4.34 and the EC90 [6] was > 150 µM. The SI50 [6] was >3 and the SI90 [6] was 1.

Compound `COc1ccc([C@@H]2Sc3ccccc3N(CCN(C)C)C(=O)[C@@H]2OC(C)=O)cc1` [Diltiazem] has a half-life at 0.75 µM [7] of 2.08 h.

For `Nc1ccn([C@@H]2OC(CO)=C[C@H]2O)c(=O)n1` [ddhC, ddh cytidine], the “activity against enterovirus EV-68 (in words)” value [8] was “exhibits some activity”.

Compound `Nc1nc2c(ncn2COC(CO)CO)c(=O)[nH]1` [Ganciclovir, reference compound] has a pEC50 [9] of 5.13.

With `CC(C)(C)C(=O)SCCOP(=O)(OCCSC(=O)C(C)(C)C)OCC1=CC(O)C(n2cnc3c(=O)[nH]c(N)nc32)O1` (centres unmarked) [SATE-ddhG] the CC50 [10] was > 1000 µM, the “SI50 (SI)” value [10] was 0 and the CC50 [11] was > 1000 µM. The “SI50 (SI)” value [11] was 0, the “SI50 (SI)” value [12] was 0 and the CC50 [13] was > 1000 µM. The “SI50 (SI)” value [13] was 0, the CC50 [14] was 610 µM and the “SI50 (SI)” value [14] was 0. The CC50 [15] was > 1000 µM, the “SI50 (SI)” value [15] was 0 and the Activity [5] was “HI (key: NA (Not Active) SI50 = 0-3.9; LO (Slightly Active) SI50 = 4-9.9; MOD (Moderately Active) SI50 = 10-19.9; HI (Highly Active) SI50 = ≥20)”. For the same compound, the CC50 [5] was > 150 µM, the pEC50 [5] was 5.27 and the EC90 [5] was 5.86 µM. The SI50 [5] was >28, the SI90 [5] was >26 and the “activity against BK virus (in words)” value [5] was “highly active”. For the same compound, the CC50 [16] was 83 µM, the “SI50 (SI)” value [16] was 0 and the Activity [6] was “HI (key: NA (Not Active) SI50 = 0-3.9; MOD (Moderately Active) SI50 = 4-9.9; HI (Highly Active) SI50 = ≥10)”. The CC50 [6] was 106 µM, the pEC50 [6] was 5.53 and the EC90 [6] was > 30 µM. For the same compound, the SI50 [6] was 35, the SI90 [6] was <4 and the “activity against EBV (in words)” value [6] was “highly active”. The “SI50 (SI)” value [17] was 0.

For `Nc1ccn([C@H]2CC[C@@H](CO)O2)c(=O)n1` [2-3 Dideoxycytidine], the CC50 [18] was >100 µg/mL, the EQ50 [18] was 1.8 µg/mL and the SI [18] was >56.

For `NC(=O)c1ncn([C@@H]2O[C@H](CO)[C@@H](O)[C@H]2O)n1` [Ribavirin, Ribavirin (Virazole), reference compound], the CC50 [10] was > 1000 µg/mL, the “SI50 (SI)” value [10] was >130 and the CC50 [19] was 42 µg/mL (≈ 0.172 mM). The EQ50 [19] was 7.3 µg/mL, the SI [19] was 5.8 and the CC50 [13] was 310 µg/mL. The “SI50 (SI)” value [13] was 16, the CC50 [14] was > 1000 µg/mL and the “SI50 (SI)” value [14] was >190. For the same compound, the CC50 [15] was > 1000 µg/mL, the “SI50 (SI)” value [15] was >130 and the CC50 [20] was >1000 µg/mL. The EQ50 [20] was 1.4 µg/mL, the SI [20] was >710 and the CC50 [21] was >1000 µg/mL. For the same compound, the EQ50 [21] was 4.6 µg/mL, the SI [21] was >220 and the SI [22] was >560. The CC50 ([22]; MDCK cells without virus, positive control) was >1000 µg/mL, the EQ50 ([22]; influenza A(H5N1), MDCK cells, positive control) was 1.8 µg/mL and the SI [23] was 62. The EQ50 ([23]; RVFV, Vero 76 cells, positive control) was 14 µg/mL, the CC50 ([23]; Vero 76 cells without virus, positive control) was 870 µg/mL (≈ 3.56 mM) and the CC50 [24] was 820 µg/mL (≈ 3.36 mM). It also gave an EQ50 [24] of 13 µg/mL and an SI [24] of 63.

In the case of `N#C[C@@]1(c2ccc3c(N)ncnn23)O[C@H](COP(=O)(O)OP(=O)(O)OP(=O)(O)O)[C@@H](O)[C@H]1O` [REM-TP, Remdesivir-TP, reference compound], the “incorporation into RNA” value [1] was “incorporated into RNA as ATP analogs” and the “chain termination of RNA synthesis (in words)” value [2] was “did not cause chain termination”.

For `Nc1nc2c(ncn2COC(CO)CO)c(=O)[nH]1` [GCV], the CC50 [3] was > 150 µM, the pEC50 [3] was 6.72 and the EC90 [3] was > 150 µM.

With `O=c1ccn([C@@H]2O[C@H](COP(=O)(O)OP(=O)(O)OP(=O)(O)O)C[C@H]2O)c(=O)[nH]1` [3′-dUTP, 3′-deoxyuracil triphosphate, reference compound] the “incorporation into RNA” value [1] was “same level of incorporation as ddhUTP”.

Work on `C#C[C@@]1(O)[C@H](O)[C@@H](CO)O[C@H]1n1ccc2c(N)ncnc21` [NITD008, reference compound] yielded a CC50 [25] of 44 µg/mL (≈ 0.152 mM), an EQ50 [25] of 1.8 µg/mL and an SI [25] of 24.

In the case of `CC(C)(C)C(=O)SCCOP(=O)(OCCSC(=O)C(C)(C)C)OCC1=CC(O)C(n2ccc(N)nc2=O)O1` (centres unmarked) [SATE-ddhC], the CC50 [10] was > 1000 µM, the “SI50 (SI)” value [10] was 0 and the CC50 [11] was 410 µM. For the same compound, the “SI50 (SI)” value [11] was 0, the “SI50 (SI)” value [12] was 0 and the CC50 [13] was 540 µM. For the same compound, the “SI50 (SI)” value [13] was 0, the CC50 [14] was 210 µM and the “SI50 (SI)” value [14] was 0. The CC50 [15] was 550 µM, the “SI50 (SI)” value [15] was 0 and the Activity [5] was “NA (key: NA (Not Active) SI50 = 0-3.9; MOD (Moderately Active) SI50 = 4-9.9; HI (Highly Active) SI50 = ≥10)”. For the same compound, the CC50 [5] was > 150 µM, the pEC50 [5] was 4.02 and the EC90 [5] was > 150 µM. The SI50 [5] was >2, the SI90 [5] was 1 and the CC50 [16] was > 100 µM. For the same compound, the “SI50 (SI)” value [16] was 0, the Activity [6] was “MOD (key: NA (Not Active) SI50 = 0-3.9; MOD (Moderately Active) SI50 = 4-9.9; HI (Highly Active) SI50 = ≥10)” and the CC50 [6] was 124 µM. For the same compound, the pEC50 [6] was 4.73, the EC90 [6] was > 30 µM and the SI50 [6] was 7. The SI90 [6] was <4, the “activity against EBV (in words)” value [6] was “moderately active” and the “SI50 (SI)” value [17] was 0.

For `CC(C)(C)C(=O)SCCOP(=O)(OCCSC(=O)C(C)(C)C)OCC1=CC(O)C(n2cnc3c(=O)[nH]cnc32)O1` (centres unmarked) [SATE-ddhI], the CC50 [10] was > 1000 µM, the “SI50 (SI)” value [10] was 0 and the CC50 [11] was 530 µM. The “SI50 (SI)” value [11] was 0, the “SI50 (SI)” value [12] was 0 and the CC50 [13] was > 1000 µM. For the same compound, the “SI50 (SI)” value [13] was 0, the CC50 [14] was 900 µM and the “SI50 (SI)” value [14] was 0. For the same compound, the CC50 [15] was > 1000 µM, the “SI50 (SI)” value [15] was 0 and the Activity [5] was “NA (key: NA (Not Active) SI50 = 0-3.9; MOD (Moderately Active) SI50 = 4-9.9; HI (Highly Active) SI50 = ≥10)”. For the same compound, the CC50 [5] was > 150 µM, the pEC50 [5] was 3.94 and the EC90 [5] was > 150 µM. For the same compound, the SI50 [5] was >1, the SI90 [5] was 1 and the CC50 [16] was > 100 µM. For the same compound, the “SI50 (SI)” value [16] was 0, the Activity [6] was “MOD (key: NA (Not Active) SI50 = 0-3.9; MOD (Moderately Active) SI50 = 4-9.9; HI (Highly Active) SI50 = ≥10)” and the CC50 [6] was > 150 µM. The pEC50 [6] was 4.73, the EC90 [6] was 81.9 µM and the SI50 [6] was >8. For the same compound, the SI90 [6] was >2, the “activity against EBV (in words)” value [6] was “moderately active” and the “SI50 (SI)” value [17] was 0.

Compound `CC(C)[N+](C)(CCOC(=O)C1c2ccccc2Oc2ccccc21)C(C)C` [Propantheline] has a half-life at 0.75 µM [26] of 0.28 h.

For `CC(C)(C)C(=O)SCCOP(=O)(OCCSC(=O)C(C)(C)C)OCC1=CC(O)C(n2cnc3c(N)ncnc32)O1` (centres unmarked) [SATE-ddhA], the CC50 [10] was 180 µM, the “SI50 (SI)” value [10] was 0 and the CC50 [11] was 49 µM. For the same compound, the “SI50 (SI)” value [11] was 0, the “SI50 (SI)” value [12] was 0 and the CC50 [13] was 170 µM. The “SI50 (SI)” value [13] was 0, the CC50 [14] was 58 µM and the “SI50 (SI)” value [14] was 0. For the same compound, the CC50 [15] was 180 µM, the “SI50 (SI)” value [15] was 0 and the Activity [5] was “NA (key: NA (Not Active) SI50 = 0-3.9; MOD (Moderately Active) SI50 = 4-9.9; HI (Highly Active) SI50 = ≥10)”. For the same compound, the CC50 [5] was 89.7 µM, the pEC50 [5] was < 4.52 and the EC90 [5] was > 30 µM. The SI50 [5] was <3, the SI90 [5] was <3 and the CC50 [16] was 2 µM. For the same compound, the “SI50 (SI)” value [16] was 0, the Activity [6] was “MOD (key: NA (Not Active) SI50 = 0-3.9; MOD (Moderately Active) SI50 = 4-9.9; HI (Highly Active) SI50 = ≥10)” and the CC50 [6] was 55.8 µM. It also gave a pEC50 [6] of 4.89, an EC90 [6] of 26.8 µM and an SI50 [6] of 4. The SI90 [6] was 2, the “activity against EBV (in words)” value [6] was “moderately active” and the “SI50 (SI)” value [17] was 0.

Reference: patent US12466849B2, “Anti-viral and anti-tumoral compounds” (YEDA RESEARCH AND DEVELOPMENT CO. LTD, priority 2020, dated 2025)
